Experimental data taken from ChEMBL document CHEMBL1201861, “Genomics of Drug Sensitity in Cancer screening data, Wellcome Trust Sanger Institute”.

Assays:
Assay in all cases: cells
COLO-824 = format: functional, cell-based, Homo sapiens; conditions: Homo sapiens, COLO-824
Description: SANGER: Inhibition of human COLO-824 cell growth in a cell viability assay.

EKVX = format: functional, cell-based, Homo sapiens; conditions: Homo sapiens, EKVX
Description: SANGER: Inhibition of human EKVX cell growth in a cell viability assay.

ETK-1 = format: functional, cell-based, Homo sapiens; conditions: Homo sapiens, ETK-1
Description: SANGER: Inhibition of human ETK-1 cell growth in a cell viability assay.

EW-18 = format: functional, cell-based; conditions: Homo sapiens
Description: SANGER: Inhibition of human EW-18 cell growth in a cell viability assay.

GI-1 = format: functional, cell-based, Homo sapiens; conditions: Homo sapiens, GI-1
Description: SANGER: Inhibition of human GI-1 cell growth in a cell viability assay.

HCC1187 = format: functional, cell-based, Homo sapiens; conditions: Homo sapiens, HCC1187
Description: SANGER: Inhibition of human HCC1187 cell growth in a cell viability assay.

HCC38 = format: functional, cell-based, Homo sapiens; conditions: Homo sapiens, HCC38
Description: SANGER: Inhibition of human HCC38 cell growth in a cell viability assay.

HSC-3 = format: functional, cell-based, Homo sapiens; conditions: Homo sapiens, HSC-3
Description: SANGER: Inhibition of human HSC-3 cell growth in a cell viability assay.

JEG-3 = format: functional, cell-based, Homo sapiens; conditions: Homo sapiens, JEG-3
Description: SANGER: Inhibition of human JEG-3 cell growth in a cell viability assay.

K5 = format: functional, cell-based, Homo sapiens; conditions: Homo sapiens, K5
Description: SANGER: Inhibition of human K5 cell growth in a cell viability assay.

KARPAS-45 = format: functional, cell-based; conditions: Homo sapiens
Description: SANGER: Inhibition of human KARPAS-45 cell growth in a cell viability assay.

KU812 cell line = format: functional, cell-based; conditions: Homo sapiens
Description: SANGER: Inhibition of human KU812 cell growth in a cell viability assay.

KYSE-140 = format: functional, cell-based, Homo sapiens; conditions: Homo sapiens, KYSE-140
Description: SANGER: Inhibition of human KYSE-140 cell growth in a cell viability assay.

KYSE-270 = format: functional, cell-based, Homo sapiens; conditions: Homo sapiens, KYSE-270
Description: SANGER: Inhibition of human KYSE-270 cell growth in a cell viability assay.

LS-1034 = format: functional, cell-based, Homo sapiens; conditions: Homo sapiens, LS-1034
Description: SANGER: Inhibition of human LS-1034 cell growth in a cell viability assay.

MDA-MB-157 = format: functional, cell-based, Homo sapiens; conditions: Homo sapiens, MDA-MB-157
Description: SANGER: Inhibition of human MDA-MB-157 cell growth in a cell viability assay.

MDA-MB-231 = format: functional, cell-based, Homo sapiens; conditions: Homo sapiens, MDA-MB-231
Description: SANGER: Inhibition of human MDA-MB-231 cell growth in a cell viability assay.

MEL-HO = format: functional, cell-based, Homo sapiens; conditions: Homo sapiens, MEL-HO
Description: SANGER: Inhibition of human MEL-HO cell growth in a cell viability assay.

NB13 = format: functional, cell-based, Homo sapiens; conditions: Homo sapiens, NB13
Description: SANGER: Inhibition of human NB13 cell growth in a cell viability assay.

NB14 = format: functional, cell-based; conditions: Homo sapiens
Description: SANGER: Inhibition of human NB14 cell growth in a cell viability assay.

NB69 = format: functional, cell-based, Homo sapiens; conditions: Homo sapiens, NB69
Description: SANGER: Inhibition of human NB69 cell growth in a cell viability assay.

NCI-H1304 = format: functional, cell-based; conditions: Homo sapiens
Description: SANGER: Inhibition of human NCI-H1304 cell growth in a cell viability assay.

NCI-H1355 = format: functional, cell-based, Homo sapiens; conditions: Homo sapiens, NCI-H1355
Description: SANGER: Inhibition of human NCI-H1355 cell growth in a cell viability assay.

NCI-H292 = format: functional, cell-based, Homo sapiens; conditions: Homo sapiens, NCI-H292
Description: SANGER: Inhibition of human NCI-H292 cell growth in a cell viability assay.

NCI-H596 = format: functional, cell-based, Homo sapiens; conditions: Homo sapiens, NCI-H596
Description: SANGER: Inhibition of human NCI-H596 cell growth in a cell viability assay.

NUGC-3 = format: functional, cell-based, Homo sapiens; conditions: Homo sapiens, NUGC-3
Description: SANGER: Inhibition of human NUGC-3 cell growth in a cell viability assay.

OCI-AML2 = format: functional, cell-based; conditions: Homo sapiens
Description: SANGER: Inhibition of human OCI-AML2 cell growth in a cell viability assay.

OMC-1 = format: functional, cell-based, Homo sapiens; conditions: Homo sapiens, OMC-1
Description: SANGER: Inhibition of human OMC-1 cell growth in a cell viability assay.

RERF-LC-MS = format: functional, cell-based, Homo sapiens; conditions: Homo sapiens, RERF-LC-MS
Description: SANGER: Inhibition of human RERF-LC-MS cell growth in a cell viability assay.

RPMI-7951 = format: functional, cell-based, Homo sapiens; conditions: Homo sapiens, RPMI-7951
Description: SANGER: Inhibition of human RPMI-7951 cell growth in a cell viability assay.

SCC-15 = format: functional, cell-based, Homo sapiens; conditions: Homo sapiens, SCC-15
Description: SANGER: Inhibition of human SCC-15 cell growth in a cell viability assay.

SK-LU-1 = format: functional, cell-based, Homo sapiens; conditions: Homo sapiens, SK-LU-1
Description: SANGER: Inhibition of human SK-LU-1 cell growth in a cell viability assay.

SK-PN-DW = format: functional, cell-based; conditions: Homo sapiens
Description: SANGER: Inhibition of human SK-PN-DW cell growth in a cell viability assay.

SK-UT-1 = format: functional, cell-based, Homo sapiens; conditions: Homo sapiens, SK-UT-1
Description: SANGER: Inhibition of human SK-UT-1 cell growth in a cell viability assay.

SW1783 = format: functional, cell-based; conditions: Homo sapiens
Description: SANGER: Inhibition of human SW1783 cell growth in a cell viability assay.

SW626 = format: functional, cell-based, Homo sapiens; conditions: Homo sapiens, SW626
Description: SANGER: Inhibition of human SW626 cell growth in a cell viability assay.

SW948 = format: functional, cell-based, Homo sapiens; conditions: Homo sapiens, SW948
Description: SANGER: Inhibition of human SW948 cell growth in a cell viability assay.

SiHa = format: functional, cell-based, Homo sapiens; conditions: Homo sapiens, SiHa
Description: SANGER: Inhibition of human SiHa cell growth in a cell viability assay.

T84 = format: functional, cell-based, Homo sapiens; conditions: Homo sapiens, T84
Description: SANGER: Inhibition of human T84 cell growth in a cell viability assay.

ALL-PO = format: functional, cell-based; conditions: Homo sapiens
Description: SANGER: Inhibition of human ALL-PO cell growth in a cell viability assay.

ATN-1 = format: functional, cell-based; conditions: Homo sapiens
Description: SANGER: Inhibition of human ATN-1 cell growth in a cell viability assay.

BB30-HNC = format: functional, cell-based, Homo sapiens; conditions: Homo sapiens, BB30-HNC
Description: SANGER: Inhibition of human BB30-HNC cell growth in a cell viability assay.

CAL-85-1 = format: functional, cell-based; conditions: Homo sapiens
Description: SANGER: Inhibition of human CAL-85-1 cell growth in a cell viability assay.

TE-8 = format: functional, cell-based, Homo sapiens; conditions: Homo sapiens, TE-8
Description: SANGER: Inhibition of human TE-8 cell growth in a cell viability assay.

TK-10 = format: functional, cell-based, Homo sapiens; conditions: Homo sapiens, TK-10
Description: SANGER: Inhibition of human TK10 cell growth in a cell viability assay.

U-118-MG = format: functional, cell-based, Homo sapiens; conditions: Homo sapiens, U-118-MG
Description: SANGER: Inhibition of human U-118-MG cell growth in a cell viability assay.

UO-31 = format: functional, cell-based; conditions: Homo sapiens
Description: SANGER: Inhibition of human U031 cell growth in a cell viability assay.

UMUC3 = format: functional, cell-based, Homo sapiens; conditions: Homo sapiens, UMUC3
Description: SANGER: Inhibition of human UM-UC-3 cell growth in a cell viability assay.

CCRF-CEM = format: functional, cell-based; conditions: Homo sapiens
Description: SANGER: Inhibition of human CCRF-CEM cell growth in a cell viability assay.

COLO-320-HSR = format: functional, cell-based; conditions: Homo sapiens
Description: SANGER: Inhibition of human COLO-320-HSR cell growth in a cell viability assay.

COLO-668 = format: functional, cell-based, Homo sapiens; conditions: Homo sapiens, COLO-668
Description: SANGER: Inhibition of human COLO-668 cell growth in a cell viability assay.

COLO-684 = format: functional, cell-based; conditions: Homo sapiens
Description: SANGER: Inhibition of human COLO-684 cell growth in a cell viability assay.

DMS-79 = format: functional, cell-based; conditions: Homo sapiens
Description: SANGER: Inhibition of human DMS-79 cell growth in a cell viability assay.

## C=CCNC1=C2C[C@@H](C)C[C@H](OC)[C@H](O)[C@@H](C)/C=C(\C)[C@H](OC(N)=O)[C@@H](OC)/C=C\C=C(/C)C(=O)NC(=CC1=O)C2=O [TANESPIMYCIN]
COLO-824
  IC50: 0.173 µM
EKVX
  IC50: > 1 µM
ETK-1
  IC50: 0.159 µM
EW-18
  IC50: 0.389 µM
GI-1
  IC50: 0.146 µM
HCC1187
  IC50: > 1 µM
HCC38
  IC50: 0.301 µM
HSC-3
  IC50: 0.00929 µM
JEG-3
  IC50: 0.187 µM
K5
  IC50: 0.244 µM
KARPAS-45
  IC50: 0.379 µM
KU812 cell line
  IC50: 0.34 µM
KYSE-140
  IC50: > 1 µM
KYSE-270
  IC50: 0.231 µM
LS-1034
  IC50: > 1 µM
MDA-MB-157
  IC50: 0.181 µM
MDA-MB-231
  IC50: > 1 µM
MEL-HO
  IC50: 0.0726 µM
NB13
  IC50: 0.368 µM
NB14
  IC50: > 1 µM
NB69
  IC50: 0.271 µM
NCI-H1304
  IC50: > 1 µM
NCI-H1355
  IC50: 0.281 µM
NCI-H292
  IC50: 0.131 µM
NCI-H596
  IC50: > 1 µM
NUGC-3
  IC50: 0.145 µM
OCI-AML2
  IC50: 0.654 µM
OMC-1
  IC50: 0.118 µM
RERF-LC-MS
  IC50: 0.746 µM
RPMI-7951
  IC50: 0.00717 µM
SCC-15
  IC50: > 1 µM
SK-LU-1
  IC50: 0.0308 µM
SK-PN-DW
  IC50: > 1 µM
SK-UT-1
  IC50: 0.0318 µM
SW1783
  IC50: 0.34 µM
SW626
  IC50: 0.335 µM
SW948
  IC50: > 1 µM
SiHa
  IC50: 0.105 µM
T84
  IC50: > 1 µM
ALL-PO
  IC50: > 1 µM
ATN-1
  IC50: > 1 µM
BB30-HNC
  IC50: 0.173 µM
CAL-85-1
  IC50: > 1 µM
TE-8
  IC50: 0.113 µM
TK-10
  IC50: 0.231 µM
U-118-MG
  IC50: 0.276 µM
UO-31
  IC50: 0.205 µM
UMUC3
  IC50: 0.455 µM
CCRF-CEM
  IC50: > 1 µM
COLO-320-HSR
  IC50: > 1 µM
COLO-668
  IC50: > 1 µM
COLO-684
  IC50: 0.345 µM

## O=C(NOCC1CC1)c1ccc(F)c(F)c1Nc1ccc(I)cc1Cl [CI-1040]
COLO-824
  IC50: > 10 µM
DMS-79
  IC50: > 10 µM
EKVX
  IC50: > 10 µM
ETK-1
  IC50: > 10 µM
EW-18
  IC50: > 10 µM
GI-1
  IC50: > 10 µM
HCC1187
  IC50: > 10 µM
HCC38
  IC50: > 10 µM
HSC-3
  IC50: 3.23 µM
JEG-3
  IC50: > 10 µM
K5
  IC50: 0.431 µM
KARPAS-45
  IC50: > 10 µM
KU812 cell line
  IC50: 0.453 µM
KYSE-140
  IC50: 6.02 µM
KYSE-270
  IC50: > 10 µM
LS-1034
  IC50: > 10 µM
MDA-MB-157
  IC50: > 10 µM
MDA-MB-231
  IC50: 4.29 µM
MEL-HO
  IC50: 0.277 µM
NB13
  IC50: > 10 µM
NB14
  IC50: 7.67 µM
NB69
  IC50: 1.78 µM
NCI-H1304
  IC50: 6.2 µM
NCI-H1355
  IC50: 7.59 µM
NCI-H292
  IC50: 1.87 µM
NCI-H596
  IC50: > 10 µM
NUGC-3
  IC50: 5.49 µM
OCI-AML2
  IC50: > 10 µM
RERF-LC-MS
  IC50: 5.69 µM
RPMI-7951
  IC50: 4.26 µM
SCC-15
  IC50: > 10 µM
SK-LU-1
  IC50: 3.69 µM
SK-PN-DW
  IC50: > 10 µM
SK-UT-1
  IC50: 8.98 µM
SW1783
  IC50: > 10 µM
SW626
  IC50: 4.04 µM
SW948
  IC50: > 10 µM
SiHa
  IC50: > 10 µM
T84
  IC50: > 10 µM
ALL-PO
  IC50: 4.36 µM
ATN-1
  IC50: > 10 µM
BB30-HNC
  IC50: > 10 µM
CAL-85-1
  IC50: > 10 µM
TE-8
  IC50: 5.69 µM
TK-10
  IC50: 6.33 µM
U-118-MG
  IC50: > 10 µM
UO-31
  IC50: > 10 µM
UMUC3
  IC50: 5.18 µM
CCRF-CEM
  IC50: > 10 µM
COLO-320-HSR
  IC50: > 10 µM
COLO-668
  IC50: > 10 µM
COLO-684
  IC50: > 10 µM

## Cn1cc(C2=C(c3ccc(Cl)cc3Cl)C(=O)NC2=O)c2ccccc21 [SB-216763]
COLO-824
  IC50: > 10 µM
DMS-79
  IC50: > 10 µM
EKVX
  IC50: > 10 µM
ETK-1
  IC50: > 10 µM
EW-18
  IC50: > 10 µM
GI-1
  IC50: > 10 µM
HCC1187
  IC50: > 10 µM
HCC38
  IC50: > 10 µM
HSC-3
  IC50: > 10 µM
JEG-3
  IC50: > 10 µM
K5
  IC50: 1.54 µM
KARPAS-45
  IC50: > 10 µM
KYSE-140
  IC50: > 10 µM
KYSE-270
  IC50: > 10 µM
LS-1034
  IC50: > 10 µM
MDA-MB-157
  IC50: > 10 µM
MDA-MB-231
  IC50: > 10 µM
MEL-HO
  IC50: > 10 µM
NB13
  IC50: > 10 µM
NB14
  IC50: > 10 µM
NB69
  IC50: > 10 µM
NCI-H1304
  IC50: > 10 µM
NCI-H1355
  IC50: > 10 µM
NCI-H292
  IC50: > 10 µM
NCI-H596
  IC50: > 10 µM
NUGC-3
  IC50: > 10 µM
OCI-AML2
  IC50: > 10 µM
RERF-LC-MS
  IC50: > 10 µM
RPMI-7951
  IC50: > 10 µM
SCC-15
  IC50: > 10 µM
SK-LU-1
  IC50: > 10 µM
SK-PN-DW
  IC50: > 10 µM
SK-UT-1
  IC50: > 10 µM
SW1783
  IC50: > 10 µM
SW626
  IC50: > 10 µM
SW948
  IC50: > 10 µM
SiHa
  IC50: > 10 µM
T84
  IC50: > 10 µM
ALL-PO
  IC50: > 10 µM
ATN-1
  IC50: > 10 µM
BB30-HNC
  IC50: > 10 µM
CAL-85-1
  IC50: > 10 µM
TE-8
  IC50: > 10 µM
TK-10
  IC50: > 10 µM
U-118-MG
  IC50: > 10 µM
UO-31
  IC50: > 10 µM
UMUC3
  IC50: > 10 µM
CCRF-CEM
  IC50: > 10 µM
COLO-320-HSR
  IC50: > 10 µM
COLO-668
  IC50: > 10 µM
COLO-684
  IC50: > 10 µM
